ChEMBL document CHEMBL1157539, “Thousands of chemical starting points for antimalarial lead identification” (Nature, 2010)

System: Plasmodium falciparum
Experiment: GSK_TCMDC: Inhibition of Plasmodium falciparum 3D7 in whole erythrocytes, using parasite LDH activity as an index of growth.
Type: functional, organism-based
Conditions: Plasmodium falciparum, 3D7

With `CN(C)CCCOc1ccc(CN2CC[C@H](NC(=O)c3ccc(Cl)c(Cl)c3)C2)cc1Cl` the XC50 was 957 nM.

`Cc1cc(CNCCCCCCCNCc2cccc([N+](=O)[O-])c2)ccc1O` gave an XC50 of 637 nM.

Compound `COC(=O)Nc1nc2cc3c(cc2s1)OCCO3` has an XC50 of 841 nM.

In the case of `CCCC(=O)NC(NC(=S)Nc1ccc([N+](=O)[O-])cc1)C(Cl)(Cl)Cl` (stereo unspecified), the XC50 is reported as 1030 nM.

`Clc1cc(Nc2ccnc3ccc(Br)cc23)ccc1Oc1ccc2ccccc2c1Cl` gave an XC50 of 725 nM.

`O=C(Nc1cccc(CN2CCN(C(=O)c3cccc(Cl)c3)CC2)c1)c1cccs1` gave an XC50 of 184 nM.

With `O=C(Nc1ccc(Cn2ncc(N3CCCNCC3)c(Cl)c2=O)cc1)Nc1cc(Cl)cc(Cl)c1` the XC50 was 866 nM.

With `COc1ccc([N+](=O)[O-])cc1N(Cc1ccccc1-c1ccccc1)S(=O)(=O)c1ccc(C(F)(F)F)cc1` the XC50 was 784 nM.

For `O=[N+]([O-])c1ccc2nc(Nc3cccc(C(F)(F)F)c3)c(Nc3cccc(C(F)(F)F)c3)nc2c1`, the XC50 was 483 nM.

Compound `CC1(C)C(=O)Nc2ccccc2N1C(=O)CN1CCN(c2ccccc2O)CC1` has an XC50 of 1070 nM.

`CCN(CC)CCON=Cc1cc(C)c2[nH]c3ccc(OCc4ccccc4)cc3c2c1C` was tested, and the XC50 was 972 nM.

Compound `CCCCC([C@@H](Cc1ccc2ccccc2c1)C(=O)N[C@H](C(=O)NC)C(C)(C)C)N(O)C=O` (stereo partly specified) has an XC50 of 142 nM.

`CNC(=O)c1cnc(Nc2ccc(N3CCN(C)CC3)cc2)nc1Nc1cccc(OC(C)C)c1` showed an XC50 of 147 nM.

With `COc1ccc2nccc(N3CCC(NCc4ccc5c(n4)NC(=O)CS5)CC3)c2n1` the XC50 was 860 nM.

For `CCOC(=O)C(NC(=O)c1ccc([N+](=O)[O-])o1)C(C)C` (stereo unspecified), the XC50 was 1060 nM.

With `Cn1c(N)c(C(=O)CSc2ncc(-c3ccc(F)cc3)n2Cc2ccccc2)c(=O)n(C)c1=O` the XC50 was 569 nM.

Work on `CC(=O)Nc1nc(C(=O)Nc2cccc(-c3ccc(-c4nc5ccccc5[nH]4)cc3)c2)cs1` yielded an XC50 of 421 nM.

Compound `CCOC(=O)c1ccc(NC(=O)Nc2cccc(-c3ccc(-c4nc5cccc(C)c5[nH]4)s3)c2)cc1` has an XC50 of 144 nM.

In the case of `COc1ccc(C(C)Nc2nc(N)c3cc(OC)c(OC)cc3n2)cc1` (stereo unspecified), the XC50 is reported as 936 nM.

In the case of `Cc1ccc(/C=C/C(=O)NCCCCCN2CCCN(C(=O)Nc3ccc(Cl)c(Cl)c3)CC2)cc1`, the XC50 is reported as 942 nM.

For `CN(C)c1cccc(NC(=O)NC2N=C(c3ccccc3)c3ccccc3N(CC(=O)N(C)c3ccccc3)C2=O)c1` (stereo unspecified), the XC50 was 947 nM.

`Cc1ccc(NC(=O)c2ccc3ncccc3c2)cc1OC1CCN(Cc2ccsc2)C1` (stereo unspecified) gave an XC50 of 802 nM.

`O=C(/C=C/C=C/c1ccc(Cl)c(Cl)c1)NCCCCCN1CCCC2CCCCC21` (stereo unspecified) showed an XC50 of 954 nM.

`Cc1cc(CNCCCCCCNCc2cccc([N+](=O)[O-])c2)ccc1O` showed an XC50 of 723 nM.

`COc1ccc(-c2cc(-c3ccc(S(C)(=O)=O)cc3)cnc2N)cn1` showed an XC50 of 187 nM.

Work on `Cc1cc2[nH]c(-c3ccc(C(=O)NCCCN4CCN(c5cccc(Cl)c5)CC4)cc3)nc2cc1Cl` yielded an XC50 of 769 nM.

Compound `Cc1cc(NC(=O)c2cccs2)ccc1OC1CCN(Cc2ccc(F)cc2)C1` (stereo unspecified) has an XC50 of 669 nM.

`Cc1cccc2nc(-c3ccc(-c4cccc(CNCCCN5CCCC5=O)c4)cc3)[nH]c12` was tested, and the XC50 was 840 nM.

Compound `CC(Cc1ccc(OCC(=O)NCC2CCN(CCc3cccc(Cl)c3)CC2)cc1)NCCc1cccc(Cl)c1` (stereo unspecified) has an XC50 of 663 nM.

`Cc1cccc(CNc2nc(C)cc(N[C@@H](CC(C)C)C(=O)NCc3cccc(F)c3)n2)c1` was tested, and the XC50 was 1180 nM.

In the case of `CN(C)C(CNC(=O)c1cc(-c2ccncc2)c(-c2ccc(NC(=O)Nc3cccc(F)c3)cc2)o1)c1ccccc1` (stereo unspecified), the XC50 is reported as 772 nM.

Work on `COc1ccc(C2=CCN(c3ccc(Cl)c(Cl)c3)C2=O)cc1OCCN1CCCCC1` yielded an XC50 of 784 nM.

`CN1CCN(c2ccc(CNc3ccc4ncc(-c5ccc(OC(F)(F)F)cc5)n4n3)cc2)CC1` showed an XC50 of 834 nM.

`Oc1cccc(-c2nc(-c3ccccc3)c(-c3ccc4oc5ccc(-c6[nH]c(-c7cccc(O)c7)nc6-c6ccccc6)cc5c4c3)[nH]2)c1` was tested, and the XC50 was 795 nM.

`CCS(=O)(=O)c1ccc(OC)c(Nc2nccc(-c3c(-c4cccc(NC(=O)c5c(F)cccc5F)c4)nn4ncccc34)n2)c1` showed an XC50 of 1030 nM.

With `CC(C)(C)NS(=O)(=O)c1cc(C(=O)N2CCC(CCN3CCC(O)(c4cccc(C(F)(F)F)c4)CC3)(c3cccc(F)c3)CC2)c(Cl)cc1F` the XC50 was 858 nM.

`COc1c(CNCCCCCCNCc2cc(Cl)c3ccccc3c2OC)cc(Cl)c2ccccc12` was tested, and the XC50 was 937 nM.

`COc1cccc(CCNc2nc(NCc3ccccc3)c3cc(OC)c(OC)cc3n2)c1` was tested, and the XC50 was 321 nM.

With `CC(C)CSc1cc(C(=O)Nc2cc(Cl)ccc2O)ccn1` the XC50 was 670 nM.

Compound `CCCC(=O)Nc1ccc(OCCCN(Cc2ccccc2OC(F)(F)F)c2ccc(C#N)c(C(F)(F)F)c2)cc1` has an XC50 of 600 nM.

`Cc1cc(C)c2c(c1)C(=NO)CCN2` showed an XC50 of 945 nM.

With `COc1cc(F)c2ncc(Cl)c(C(O)CN3CCC(NC(=O)c4ccc5c(n4)NC(=O)CO5)CC3)c2c1` (stereo unspecified) the XC50 was 754 nM.

Compound `COc1ccc2nc(-c3cc(-c4ccc(NC(C)=O)cc4)cnc3N)[nH]c2c1` has an XC50 of 1240 nM.

`O=c1cc(NCCCNCc2sc(Br)nc2Br)[nH]c2ccccc12` showed an XC50 of 866 nM.

With `COc1ccc(F)cc1-c1ccc(C(=O)N2CCCN(c3ccc(C(F)(F)F)cn3)CC2)cc1` the XC50 was 157 nM.

Compound `CCOC(=O)c1cnc2c(OC)cc(OC)c(Cl)c2c1Nc1cccc(C)c1` has an XC50 of 844 nM.

`Cc1cc(N[C@@H](CC(C)C)C(=O)NCc2cccc(F)c2)nc(Nc2ccccc2)n1` gave an XC50 of 1090 nM.

With `Cc1ccc(CNc2ccc3ncc(-c4cccc(C(=O)NCCN(C)C)c4)n3n2)c(C)c1` the XC50 was 588 nM.

`COc1ccc(N2CCN(CCCCNC(=O)c3ccc(/C=C/c4ccc(Cl)c(Cl)c4)cc3)CC2)c(OC)c1` was tested, and the XC50 was 709 nM.

`CN(CCCc1c[nH]c2ccccc12)CCC1CCC(NC(=O)/C=C/c2ccc(Cl)c(Cl)c2)CC1` (stereo unspecified) was tested, and the XC50 was 650 nM.

Compound `Nc1nc(NCC2CCC(CNS(=O)(=O)c3cccc4ccccc34)CC2)nc2ccccc12` (stereo unspecified) has an XC50 of 804 nM.

Compound `CCCCCCN1CCC(NCc2cccc3ccccc23)CC1` has an XC50 of 811 nM.

`CC1(C)CN(CCC2CCC(NC(=O)/C=C/c3ccccc3F)CC2)Cc2ccc(C#N)cc21` (stereo unspecified) gave an XC50 of 1110 nM.

`COc1cc(OC)c(NC(=O)COc2ccc(C)cc2)cc1Cl` showed an XC50 of 688 nM.

Compound `CN(Cc1ccc(C#N)cc1)C1CCN(c2cc(NC(=O)c3cccc(F)c3)ccn2)CC1` has an XC50 of 1750 nM.

With `c1ccc2c(c1)cc(CNCCCN1CCN(CCCNCc3cc4ccccc4c4ccccc34)CC1)c1ccccc12` the XC50 was 204 nM.

`CO/C(=C\C=C\c1cc2cc(Cl)c(Cl)cc2[nH]1)C(=O)NCCCN1CCN(c2ccncc2)CC1` showed an XC50 of 733 nM.

With `CC(=O)Nc1ccc(CN2CCN(C(c3ccc(F)cc3)c3ccc(F)cc3)CC2)cc1` the XC50 was 831 nM.

With `Cc1ccc(S(=O)(=O)N(C)c2ccccc2C(=O)Nc2ccccc2Oc2ccccc2)cc1` the XC50 was 919 nM.

For `O=S(=O)(NC1CCCCN(Cc2ccccc2O)C1)c1ccc(C(F)(F)F)cc1` (stereo unspecified), the XC50 was 1300 nM.

Work on `O=C(NC1CCN(Cc2ccccc2)CC1)c1ccc(-c2nc3cc(F)c(F)cc3[nH]2)s1` yielded an XC50 of 835 nM.

`COc1cc2nc(NCCc3ccccc3)nc(NCc3cc(C)no3)c2cc1OC` showed an XC50 of 239 nM.

For `CN(c1ccc(NC(=O)Nc2cc(C(C)(C)C)on2)cc1)c1ccnc(NCCOC(=O)Nc2cc(C(C)(C)C)on2)n1`, the XC50 was 752 nM.

Compound `Cc1ccc(CON2C(N)=NC(N)=NC23CCCCC3)c2ccccc12` has an XC50 of 72.6 nM.

Work on `CCOc1cc(Cc2cnc(N)nc2N)ccc1OC` yielded an XC50 of 1250 nM.

In the case of `CN(CCC(CCN1CCC(c2c[nH]c3ccccc23)CC1)c1ccccc1)C(=O)Nc1ccc(Cl)c(Cl)c1` (stereo unspecified), the XC50 is reported as 1190 nM.

`O=c1cc(NCCCNCc2cccc(OC(F)(F)C(F)F)c2)[nH]c2ccccc12` gave an XC50 of 1270 nM.

Compound `Clc1ccc2c(NCc3ccc4c(c3)OCO4)ccnc2c1` has an XC50 of 266 nM.

With `N#Cc1ccc(N2CCN(Cc3ccc(-c4cccc(-c5nc6ccccc6[nH]5)c4)cc3)CC2)nc1` the XC50 was 908 nM.

Compound `Cc1[nH]c(C)c(-c2ccc(OCc3ccc(OC(F)(F)F)cc3)nc2)c(=O)c1Cl` has an XC50 of 70.5 nM.

`CC(CN(C)C)C(=O)Nc1cccc(-c2cccc(-c3nc4cc(F)ccc4[nH]3)c2)c1` (stereo unspecified) showed an XC50 of 826 nM.

`Cc1cccc(S(=O)(=O)Nc2cccc(CCN3CCC(N4CCCCC4)CC3)c2)c1` showed an XC50 of 1330 nM.

In the case of `CC(=O)Nc1ccc(S(=O)(=O)Nc2ccc(Nc3nc(C)cc(N4CCCCC4)n3)cc2)cc1`, the XC50 is reported as 779 nM.

`Fc1cc(Cl)ccc1Nc1ccnc2cc(-c3ccc(CNCCN4CCOCC4)o3)ccc12` gave an XC50 of 277 nM.

`c1ccc(CCNc2ccnc(Nc3ccc4[nH]nnc4c3)n2)cc1` gave an XC50 of 863 nM.

With `CCc1ccc(NC(=O)c2ccc(CN3CCCN(CC4CCCCC4)CC3)cc2)cc1` the XC50 was 711 nM.

`Cc1cccc2nc(-c3ccc(-c4ccc(CNCc5ccc(CN)cc5)cc4)s3)[nH]c12` showed an XC50 of 442 nM.

Compound `CC(=O)Nc1ccc(CCNC(C)Cc2ccc(C(=O)Nc3ccc(CC(C)NCCc4cccc(Cl)c4)cc3)cc2)cc1` (stereo unspecified) has an XC50 of 330 nM.

`CCN1CCN(Cc2ccc(-c3ccc(NS(=O)(=O)c4cccc5cccnc45)cc3)cc2)CC1` was tested, and the XC50 was 922 nM.

`S=c1nc(-c2ccccc2)n2ccsc2n1` gave an XC50 of 176 nM.

`COc1cccc(CN2CCC(C(=O)Nc3ccc(-c4nc5ccccc5[nH]4)cc3)CC2)c1` gave an XC50 of 627 nM.

Work on `COc1cccc(CNC(=O)[C@H]2CNCCN2C(=O)CCCc2ccccc2)c1` yielded an XC50 of 787 nM.

For `Nc1ncc(-c2ccc(S(=O)(=O)Nc3ccc(C(=O)N[C@@H](CCC(=O)O)C(=O)O)cc3)cc2)c(=O)[nH]1`, the XC50 was 803 nM.

With `COc1ccc(-c2cc(C(=O)Nc3ccc4[nH]c(-c5ccccc5)nc4c3)[nH]n2)cc1` the XC50 was 696 nM.

`Cc1cc(=NN=Cc2cccc(Cl)c2)c2ccccc2[nH]1` showed an XC50 of 255 nM.

In the case of `CC(C)NCc1ccc(-c2cccc(NC(=O)c3ccc(C#N)cc3)c2)cc1`, the XC50 is reported as 740 nM.

`CCCCCN1CCN(Cc2cccc(NC(=O)c3ccc(Cl)c(Cl)c3)c2)CC1` was tested, and the XC50 was 857 nM.

`O=C(Nc1cc(C(F)(F)F)cc(C(F)(F)F)c1)N1CCC(CCN2CCC(c3c[nH]c4ccccc34)CC2)CC1` was tested, and the XC50 was 1260 nM.

`Cc1cccc2nc(-c3ccc(-c4cccc(CNCCCNS(C)(=O)=O)c4)s3)[nH]c12` gave an XC50 of 1020 nM.

For `CCCc1cc(N2CCC(c3ccccc3)(N3CCCCC3)CC2)nc(Nc2ccc(OC)cc2)n1`, the XC50 was 1090 nM.

In the case of `CS(=O)(=O)Nc1ccc2c(C3CCN(CCC4CCN(C(=O)/C=C/c5ccc(Cl)c(Cl)c5)CC4)CC3)c[nH]c2c1`, the XC50 is reported as 599 nM.

With `FC(F)(F)c1ccc2[nH]c(-c3ccc(-c4cccc(CN5CCCCC5)c4)cc3)nc2c1` the XC50 was 144 nM.

Compound `Nc1ncc(-c2ccc3nccc(-c4ccncc4)c3c2)cc1S(=O)(=O)N1CCOCC1` has an XC50 of 872 nM.

Work on `N#CCCN1CCN(Cc2cccc(-c3ccc(-c4nc5ccccc5[nH]4)s3)c2)CC1` yielded an XC50 of 759 nM.

With `Cc1cc(Nc2ccc(Cl)cc2)n2nc(C(F)(F)F)nc2n1` the XC50 was 117 nM.

Work on `COC(=O)c1ccc(CC(C)NCC(O)c2cccc3ccccc23)cc1` (stereo unspecified) yielded an XC50 of 935 nM.
